What all share (assay type): functional, cell-based
Common to all, as to conditions: Homo sapiens

For experiment [1], the system named is MCF7. Description: Cytotoxicity of compound against MCF-7 cell line.
Experiment [2] relates to SK-OV-3. Description: Cytotoxicity of compound against SKOV-3 cell line.
Experiment [3] relates to A549. The experiment can be described thus: Cytotoxicity of compound against A549 cell line.
Experiment [4] has as its system MCF7. Description: Cytotoxicity of compound against MCF-7/ADR cell line.

Consider 13 compounds from ChEMBL document CHEMBL1148238, “Design, synthesis and cytotoxicity of 7-deoxy aryl discodermolide analogues” (Bioorg Med Chem Lett, 2004).

Structures are written as SMILES. pIC50: −log10 of the molar value.

Turning to `C=C/C=C\[C@H](C)[C@H](OC(N)=O)[C@@H](C)[C@H](O)[C@@H](C)C/C(C)=C\[C@H](C)[C@@H](O)[C@@H](C)/C=C\CCc1sccc1C`, the pIC50 was 6.43 in experiment [1], 6.43 in experiment [2], 6.10 in experiment [3] and 6.21 in experiment [4].

Turning to `C=C/C=C\[C@H](C)[C@H](OC(N)=O)[C@@H](C)[C@H](O)[C@@H](C)C/C(C)=C\[C@H](C)[C@@H](O)[C@@H](C)/C=C\CCc1cc(F)cc(F)c1`, the pIC50 in experiment [1] is 6.22; in experiment [2], 6.44; in experiment [3], 6.00; in experiment [4], 5.70.

For `C=C/C=C\[C@H](C)[C@H](OC(N)=O)[C@@H](C)[C@H](O)[C@@H](C)C/C(C)=C\[C@H](C)[C@@H](O)[C@@H](C)/C=C\CCc1ccccc1`, the pIC50 in experiment [1] is 6.32; in experiment [2], 6.46; in experiment [3], 6.29; in experiment [4], 6.25.

`C=C/C=C\[C@H](C)[C@H](OC(N)=O)[C@@H](C)[C@H](O)[C@@H](C)C/C(C)=C\[C@H](C)[C@@H](O)[C@@H](C)/C=C\CCc1cccc(O)c1`: the pIC50 is 6.89 in experiment [1], 7.40 in experiment [2], 6.72 in experiment [3] and 6.41 in experiment [4].

Take `C=C/C=C\[C@H](C)[C@H](OC(N)=O)[C@@H](C)[C@H](O)[C@@H](C)C/C(C)=C\[C@H](C)[C@@H](O)[C@@H](C)/C=C\CCc1ccc(C)c(O)c1`: the negative-log IC50 (pIC50) was 6.11 in experiment [1], 6.39 in experiment [2], 5.40 in experiment [3] and 5.40 in experiment [4].

As to `C=C/C=C\[C@H](C)[C@H](OC(N)=O)[C@@H](C)[C@H](O)[C@@H](C)C/C(C)=C\[C@H](C)[C@@H](O)[C@@H](C)/C=C\CCc1cccc(OC)c1`, the pIC50 in experiment [1] was 6.48; in experiment [2] it was 6.43; in experiment [3], 6.22; in experiment [4], 6.30.

In the case of `C=C/C=C\[C@H](C)[C@H](OC(N)=O)[C@@H](C)[C@H](O)[C@@H](C)C/C(C)=C\[C@H](C)[C@@H](O)[C@@H](C)/C=C\CCc1ccc(Oc2ccccc2)cc1`, the pIC50 in experiment [1] is 5.40; in experiment [2], 5.00; in experiment [3], 5.00; in experiment [4] it was 5.00.

`C=C/C=C\[C@H](C)[C@H](OC(N)=O)[C@@H](C)[C@H](O)[C@@H](C)C/C(C)=C\[C@H](C)[C@@H](O)[C@@H](C)/C=C\CCc1ccc(C)c(F)c1`: the pIC50 is 6.00 in experiment [1], 6.00 in experiment [2], 5.40 in experiment [3] and 5.40 in experiment [4].

Consider `C=C/C=C\[C@H](C)[C@H](OC(N)=O)[C@@H](C)[C@H](O)[C@@H](C)C/C(C)=C\[C@H](C)[C@@H](O)[C@@H](C)/C=C\CCc1cccc(F)c1`, for which the pIC50 was 6.43 in experiment [1], 6.40 in experiment [2], 6.19 in experiment [3] and 6.30 in experiment [4].

As to `C=C/C=C\[C@H](C)[C@H](OC(N)=O)[C@@H](C)[C@H](O)[C@@H](C)C/C(C)=C\[C@H](C)[C@@H](O)[C@@H](C)/C=C\CCc1ccsc1`, the pIC50 in experiment [1] is 6.07; in experiment [2] it was 6.36; in experiment [3], 5.40; in experiment [4] it was 5.40.

For `C=C/C=C\[C@H](C)[C@H](OC(N)=O)[C@@H](C)[C@H](O)[C@@H](C)C/C(C)=C\[C@H](C)[C@@H](O)[C@@H](C)/C=C\CCc1cc(O)cc(O)c1`, the pIC50 was 6.80 in experiment [1], 7.40 in experiment [2], 6.51 in experiment [3] and < 6.00 in experiment [4].

Turning to `C=C/C=C\[C@H](C)[C@H](OC(N)=O)[C@@H](C)[C@H](O)[C@@H](C)C/C(C)=C\[C@H](C)[C@@H](O)[C@@H](C)/C=C\CCc1cccc(O)c1C`, the pIC50 in experiment [1] is 6.31; in experiment [2] it was 6.57; in experiment [3], 6.04; in experiment [4], 6.00.

With `C=C/C=C\[C@H](C)[C@H](OC(N)=O)[C@@H](C)[C@H](O)[C@@H](C)C/C(C)=C\[C@H](C)[C@@H](O)[C@@H](C)/C=C\CCc1cccc(Cl)c1`, the negative-log IC50 (pIC50) in experiment [1] was 6.40; in experiment [2], 6.42; in experiment [3], 6.24; in experiment [4], 6.19.
